This passage reports CC50 and EC50 results from patent publication US10442788B2, “Hepatitis B antiviral agents” (ENANTA PHARMACEUTICALS, INC., priority 2015, dated 2019).

Molecules are shown by their SMILES.

Data set [1] can be described thus: Compound toxicity, ATPLite total ATP levels. The format is cell-based. As to conditions: human, HepAD38 cells; 15,000 cells/well, three days after compound addition; 50% reduction of total ATP levels relative to no drug controls. As to the method: Methods: HepAD38 cells are maintained as previously reported (Ladner et al, Antimicrob. Agents Chemother. 1997, […], 1715). Briefly, cells are passaged upon attaining confluency in DMEM/F12 media in the presence of 10% FBS, Penn/Strep, 250 μg/mL G418, and 1 ug/ml tetracycline. Novel compounds are screened by first washing cells three times with PBS to remove tetracycline, and plating in 96 well plates at 35,000 cells/well. Compounds dissolved in DMSO are then diluted 1:200 into wells containing cells. Five days after compound addition, material is harvested for analysis. For an extended 8 day analysis, cells are plated and treated as described above, but media and compound are refreshed on d2 and d5 post initial treatment.
Compound toxicity is evaluated by seeding cells at 15,000 cells/well and treating with compound as described above. Three days after compound addition, cells are treated with ATPLite reagent and compound concentrations that reduce total ATP levels in wells by 50% relative to no drug controls (CC50) are reported; CC50 ranges are as follows: A>30 μM; B 10-30 μM; C<10 μM.

The test system of data set [2] is HBV. Kind of data set: HepAD38 antiviral assay: reduction of viral product accumulation (virion DNA by qPCR, HBsAg or HBeAg by ELISA). The format is cell-based. As to conditions: Hepatitis B virus, 120 h; HepAD38 cells, five days after compound addition; 50% reduction of viral product accumulation relative to no drug controls; read-out: HepAD38 EC50. Put shortly: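 Tetracycline-washed HepAD38 cells treated with compound (DMSO diluted 1:200) for 5 days, or 8 days with media and compound refreshed on d2 and d5. Virion DNA from lysates quantified by qPCR; HBsAg or HBeAg by ELISA. EC50 is the concentration giving 50% reduction versus no-drug controls, reported as ranges A<1 μM, B 1-10 μM, C>10 μM.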

As for `NCCCNS(=O)(=O)c1cc(-c2ncc(-c3ccc(F)c(Br)c3)[nH]2)ccc1Cl` [Example 61], in data set [1], the CC50 at 3 days is under 10 µM. The EC50 in data set [2] fell in the range of 1 to 10 µM.
On the same counts, the results for `COC(=O)NCCCNS(=O)(=O)c1cc(-c2ncc(-c3ccc(F)c(Br)c3)[nH]2)ccc1Cl` [Example 62] are 10 to 30 µM and 1 to 10 µM.
The matching figures for `COC(=O)NCCCNS(=O)(=O)c1cc(-c2ncc(-c3ccc(F)c(Br)c3)n2C(=O)OC)ccc1Cl` [Example 63]: 10 to 30 µM and 1 to 10 µM.
The matching figures for `O=C1CN(S(=O)(=O)c2cc(-c3ncc(-c4ccc(F)c(Br)c4)[nH]3)ccc2Cl)CCN1` [Example 64]: 10 to 30 µM and 1 to 10 µM.
Regarding `O=S(=O)(c1cc(-c2ncc(-c3ccc(F)c(O)c3)[nH]2)ccc1Cl)N1CCC(O)CC1` [Example 65], the half-maximal cytotoxic concentration (CC50) at 3 days in data set [1] is over 30 µM. The EC50 in data set [2] was over 10 µM.
The matching figures for `O=S(=O)(c1cc(-c2nc(-c3ccc(Br)cc3)c[nH]2)ccc1Cl)N1CCC(O)CC1` [Example 66]: 10 to 30 µM and under 1 µM.
In turn, `Cc1cc(F)ccc1-c1c[nH]c(-c2ccc(Cl)c(S(=O)(=O)N3CCC(O)CC3)c2)n1` [Example 67] gave a CC50 at 3 days in data set [1] of 10 to 30 µM. Moreover, the EC50 in data set [2] fell in the range of 1 to 10 µM.
As for `O=S(=O)(c1cc(-c2nc(-c3ccccc3F)c[nH]2)ccc1Cl)N1CCC(O)CC1` [Example 68], the CC50 at 3 days in data set [1] was over 30 µM. Further, the EC50 in data set [2] was 1 to 10 µM.
The matching figures for `O=S(=O)(c1cc(-c2nc(-c3ccsc3)c[nH]2)ccc1Cl)N1CCC(O)CC1` [Example 69]: over 30 µM and 1 to 10 µM.
In the case of `O=S(=O)(c1cc(-c2nc(-c3ccc(Cl)c(Cl)c3)c[nH]2)ccc1Cl)N1CCC(O)CC1` [Example 71], the CC50 at 3 days in data set [1] fell in the range of 10 to 30 µM. Further, the concentration giving a half-maximal response (EC50) in data set [2] was under 1 µM.
The matching figures for `O=S(=O)(c1cc(-c2nc(-c3ccc(Cl)c(F)c3)c[nH]2)ccc1Cl)N1CCC(O)CC1` [Example 72]: 10 to 30 µM and under 1 µM.
`Cc1ccc(-c2c[nH]c(-c3ccc(Cl)c(S(=O)(=O)N4CCC(O)CC4)c3)n2)cc1F` [Example 73]: the CC50 at 3 days in data set [1] is over 30 µM. Besides, in data set [2], the EC50 fell in the range of 1 to 10 µM.
For `O=S(=O)(c1cc(-c2nc(-c3ccc(Br)c(Cl)c3)c[nH]2)ccc1Cl)N1CCC(O)CC1` [Example 82], the CC50 at 3 days in data set [1] was under 10 µM. Besides, in data set [2], the EC50 was under 1 µM.
In data set [1], `O=S(=O)(c1cc(-c2nc(-c3ccc(C(F)(F)F)c(F)c3)c[nH]2)ccc1Cl)N1CCC(O)CC1` [Example 83] showed a CC50 at 3 days of under 10 µM. Further, the EC50 in data set [2] is under 1 µM.
On the same counts, the results for `O=S(=O)(c1cc(-c2nc(-c3ccc(Cl)c(Br)c3)c[nH]2)ccc1Cl)N1CCC(O)CC1` [Example 87] are under 10 µM and under 1 µM.
In data set [1], `Cc1cccc(-c2c[nH]c(-c3ccc(Cl)c(S(=O)(=O)N4CCC(O)CC4)c3)n2)c1` [Example 91] showed a CC50 at 3 days of over 30 µM. The EC50 in data set [2] lay within 1 to 10 µM.
The matching figures for `N#Cc1cccc(-c2c[nH]c(-c3ccc(Cl)c(S(=O)(=O)N4CCC(O)CC4)c3)n2)c1` [Example 92]: over 30 µM and 1 to 10 µM.
Consider `COc1cccc(-c2c[nH]c(-c3ccc(Cl)c(S(=O)(=O)N4CCC(O)CC4)c3)n2)c1` [Example 93], for which the CC50 at 3 days in data set [1] is over 30 µM. The EC50 in data set [2] is over 10 µM.
In the case of `O=S(=O)(c1cc(-c2nc(-c3cccc(C(F)(F)F)c3)c[nH]2)ccc1Cl)N1CCC(O)CC1` [Example 94], the CC50 at 3 days in data set [1] lay in the range of 10 to 30 µM. For the same molecule, in data set [2], the EC50 was under 1 µM.
On the same counts, the results for `O=S(=O)(c1cc(-c2nc(-c3cccc(OC(F)(F)F)c3)c[nH]2)ccc1Cl)N1CCC(O)CC1` [Example 95] are over 30 µM and 1 to 10 µM.
As for `O=S(=O)(c1cc(-c2nc(-c3ccc(C4CC4)cc3)c[nH]2)ccc1Cl)N1CCC(O)CC1` [Example 101], the CC50 at 3 days in data set [1] is under 10 µM. Also, the 50% effective concentration (EC50) in data set [2] was under 1 µM.
On the same counts, the results for `C#Cc1ccc(-c2c[nH]c(-c3ccc(Cl)c(S(=O)(=O)N4CCC(O)CC4)c3)n2)cc1F` [Example 102] are over 30 µM and 1 to 10 µM.
On the same counts, the results for `O=S(=O)(c1cc(-c2nc(-c3ccc4[nH]ccc4c3)c[nH]2)ccc1Cl)N1CCC(O)CC1` [Example 103] are over 30 µM and under 1 µM.
The matching figures for `CN(CCO)S(=O)(=O)c1cc(-c2nc(-c3ccc(Br)c(F)c3)c[nH]2)ccc1Cl` [Example 104]: 10 to 30 µM and under 1 µM.
`COCCN(C)S(=O)(=O)c1cc(-c2nc(-c3ccc(Br)c(F)c3)c[nH]2)ccc1Cl` [Example 105] gave a CC50 at 3 days in data set [1] of over 30 µM. In addition, in data set [2], the EC50 was under 1 µM.
With `CN(CCCO)S(=O)(=O)c1cc(-c2nc(-c3ccc(Br)c(F)c3)c[nH]2)ccc1Cl` [Example 106], the CC50 at 3 days in data set [1] is under 10 µM. The EC50 in data set [2] was under 1 µM.
With `O=S(=O)(c1cc(-c2nc(-c3ccc(Br)c(F)c3)c[nH]2)ccc1Cl)N1CCCC1CO` (stereo not shown) [Example 107], the CC50 at 3 days in data set [1] was over 30 µM. In addition, in data set [2], the EC50 was under 1 µM.
Regarding `O=S(=O)(c1cc(-c2nc(-c3ccc(Br)c(F)c3)c[nH]2)ccc1Cl)N1CC(O)C1` [Example 108], in data set [1], the 50% cytotoxic concentration (CC50) at 3 days is over 30 µM. Besides, the EC50 in data set [2] is 1 to 10 µM.
In data set [1], `O=S(=O)(c1cc(-c2nc(-c3ccc(Br)c(F)c3)c[nH]2)ccc1Cl)N1CCC(O)C1` (stereo not shown) [Example 109] registered a CC50 at 3 days of under 10 µM. The EC50 in data set [2] was under 1 µM.
The matching figures for `O=S(=O)(c1cc(-c2nc(-c3ccc(Br)c(F)c3)c[nH]2)ccc1Cl)N1CCCC(O)C1` (stereo not shown) [Example 110]: over 30 µM and under 1 µM.
On the same counts, the results for `CC(C)NS(=O)(=O)c1cc(-c2nc(-c3ccc(Br)c(F)c3)c[nH]2)ccc1Cl` [Example 111] are under 10 µM and under 1 µM.
In turn, `CC(C)N(C)S(=O)(=O)c1cc(-c2nc(-c3ccc(Br)c(F)c3)c[nH]2)ccc1Cl` [Example 112] gave a CC50 at 3 days in data set [1] of over 30 µM. The EC50 in data set [2] is under 1 µM.
The matching figures for `CN(C1CCCCC1)S(=O)(=O)c1cc(-c2nc(-c3ccc(Br)c(F)c3)c[nH]2)ccc1Cl` [Example 113]: under 10 µM and under 1 µM.
Take `O=S(=O)(c1cc(-c2nc(-c3ccc(Br)c(F)c3)c[nH]2)ccc1Cl)N1CCC(O)C(F)C1` (stereo not shown) [Example 114]: in data set [1], the CC50 at 3 days was over 30 µM. Moreover, in data set [2], the EC50 was under 1 µM.
In data set [1], `O=S(=O)(NCCO)c1cc(-c2nc(-c3ccc(Br)c(F)c3)c[nH]2)ccc1Cl` [Example 115] gave a 50% cytotoxic concentration (CC50) at 3 days of over 30 µM. In data set [2], the EC50 was under 1 µM.
The matching figures for `O=S(=O)(NCCCO)c1cc(-c2nc(-c3ccc(Br)c(F)c3)c[nH]2)ccc1Cl` [Example 116]: over 30 µM and under 1 µM.
The matching figures for `CS(=O)(=O)CCNS(=O)(=O)c1cc(-c2nc(-c3ccc(Br)c(F)c3)c[nH]2)ccc1Cl` [Example 117]: over 30 µM and under 1 µM.
On to `CNCCNS(=O)(=O)c1cc(-c2nc(-c3ccc(Br)c(F)c3)c[nH]2)ccc1Cl` [Example 118], for which the CC50 at 3 days in data set [1] was over 30 µM. Besides, in data set [2], the EC50 is under 1 µM.
The matching figures for `COC(=O)NCCNS(=O)(=O)c1cc(-c2nc(-c3ccc(Br)c(F)c3)c[nH]2)ccc1Cl` [Example 119]: under 10 µM and under 1 µM.
`COC(=O)NCC(C)NS(=O)(=O)c1cc(-c2nc(-c3ccc(Br)c(F)c3)c[nH]2)ccc1Cl` (stereo not shown) [Example 120]: the half-maximal cytotoxic concentration (CC50) at 3 days in data set [1] was under 10 µM. The EC50 in data set [2] is under 1 µM.
With `Cc1ccccc1-c1c[nH]c(-c2ccc(Cl)c(S(=O)(=O)N3CCC(O)CC3)c2)n1` [Example 121], in data set [1], the CC50 at 3 days is over 30 µM. For the same molecule, in data set [2], the EC50 fell in the range of 1 to 10 µM.
`O=S(=O)(c1cc(-c2nc(-c3ccccc3C3CC3)c[nH]2)ccc1Cl)N1CCC(O)CC1` [Example 122]: the CC50 at 3 days in data set [1] was over 30 µM. Further, the EC50 in data set [2] is over 10 µM.
`O=S(=O)(c1cc(-c2nc(-c3ccc(Br)c(F)c3)c[nH]2)ccc1Cl)N1CCC(F)CC1` [Example 123] had a CC50 at 3 days in data set [1] of over 30 µM. Besides, the EC50 in data set [2] is under 1 µM.
As for `O=S(=O)(c1cc(-c2nc(-c3ccc(Br)c(F)c3)c[nH]2)ccc1Cl)N1CCC(F)(F)CC1` [Example 124], in data set [1], the CC50 at 3 days is under 10 µM. For the same molecule, the EC50 in data set [2] is under 1 µM.
On the same counts, the results for `COC(=O)CNS(=O)(=O)c1cc(-c2nc(-c3ccc(Br)c(F)c3)c[nH]2)ccc1Cl` [Example 125] are over 30 µM and over 10 µM.
The matching figures for `COC(=O)CN(C)S(=O)(=O)c1cc(-c2nc(-c3ccc(Br)c(F)c3)c[nH]2)ccc1Cl` [Example 126]: over 30 µM and over 10 µM.
On the same counts, the results for `CC(CO)NS(=O)(=O)c1cc(-c2nc(-c3ccc(Br)c(F)c3)c[nH]2)ccc1Cl` (stereo not shown) [Example 127] are over 30 µM and under 1 µM.
